Experimental data published in US20240041042A1, “1-(PYRIDYL)-5-AZINYLPYRAZOLE DERIVATIVES, AND THEIR USE FOR CONTROL OF UNDESIRED PLANT GROWTH” (Bayer Aktiengesellschaft, priority 2020, published 2024).

Columns and labels:
Assay type in all cases: in vivo
[1] = tested on: Abutilon theophrasti (ABUTH); assay: Pre-emergence herbicidal action against ABUTH; settings: Dosage column 320 g/ha (title prints 3200 g/ha); scored visually after about 3 weeks; 100% = plants have died
From the text: Seeds of monocotyledonous and dicotyledonous weed plants and crop plants are placed in plastic or organic planting pots and covered with soil. The compounds of the invention, formulated in the form of wettable powders (WP) or as emulsion concentrates (EC), are then applied to the surface of the covering soil as aqueous suspension or emulsion with addition of 0.5% additive at a water application rate equivalent to 600 l/ha. After the treatment, the pots are placed in a greenhouse and kept under good growth conditions for the trial plants. After about 3 weeks, the effect of the preparations is scored visually in comparison with untreated controls as percentages. For example, 100% activity=the plants have died, 0% activity=like control plants.
Tables A1 to A13 below show the effects of selected compounds of the general formula (I) on various harmful plants and at an application rate corresponding to 320 g/ha or lower, which were obtained by the experimental procedure mentioned above. The appendices “a”, “b” and “c” give differentiation by dosage used with otherwise the same harmful plants tested.

[2] = tested on: Alopecurus myosuroides (ALOMY); assay: Pre-emergence herbicidal action against ALOMY; settings: scored visually after about 3 weeks, 100% = plants have died
In short: (§1)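 Pre-emergence soil-surface spray of compound, formulated as wettable powder or emulsion concentrate, in aqueous suspension or emulsion with 0.5% additive (600 l/ha; rate 320 g/ha or less). Activity rated visually after roughly 3 weeks in the greenhouse as a percentage of untreated controls, 0% meaning no difference.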

[3] = tested on: Amaranthus retroflexus (AMARE); assay: Pre-emergence herbicidal action against AMARE; settings: visual scoring after about 3 weeks vs untreated controls
In short: as §1

Avena fatua (AVEFA) [4] = assay: Pre-emergence herbicidal action against AVEFA; settings: visual scoring after about 3 weeks vs untreated controls
In short: as §1

[5] = tested on: Echinochloa crus-galli (ECHCG); assay: Pre-emergence herbicidal action against ECHCG
In short: as §1

Lolium rigidum (LOLRI) [6] = assay: Pre-emergence herbicidal action against LOLRI
In short: as §1

[7] = tested on: Matricaria inodora (MATIN); assay: Pre-emergence herbicidal action against MATIN; settings: dosage 320 g/ha
In short: as §1

[8] = tested on: Polygonum convolvulus (POLCO); assay: Pre-emergence herbicidal action against POLCO
In short: as §1

Setaria viridis (SETVI) [9] = assay: Pre-emergence herbicidal action against SETVI
In short: as §1

[10] = tested on: Verconica persica (VERPE); assay: Pre-emergence herbicidal action against VERPE; settings: dosage 320 g/ha
In short: as §1

Viola tricolor (VIOTR) [11] = assay: Pre-emergence herbicidal action against VIOTR
In short: as §1

[12] = tested on: Abutilon theophrasti (ABUTH); assay: Post-emergence herbicidal action against ABUTH; settings: visual rating about 3 weeks after treatment vs untreated controls (100% = plants have died, 0% = like control plants)
In short: (§2)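 Rates were 320 g/ha or below, applied as aqueous WP/EC spray with 0.5% additive (600 l/ha) onto one-leaf-stage plants. About 3 weeks later in the greenhouse, damage was scored visually against untreated plants on a 0–100% scale, where 100% means plants died.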

[13] = tested on: Alopecurus myosuroides (ALOMY); assay: Post-emergence herbicidal action against ALOMY; settings: visual rating about 3 weeks after treatment vs untreated controls (100% = plants have died, 0% = like control plants)
In short: as §2

[14] = tested on: Amaranthus retroflexus (AMARE); assay: Post-emergence herbicidal action against AMARE
In short: as §2

Avena fatua (AVEFA) [15] = assay: Post-emergence herbicidal action against AVEFA; settings: visual rating about 3 weeks after treatment
In short: as §2

[16] = tested on: Echinochloa crus-galli (ECHCG); assay: Post-emergence herbicidal action against ECHCG
In short: as §2

Lolium rigidum (LOLRI) [17] = assay: Post-emergence herbicidal action against LOLRI
In short: as §2

[18] = tested on: Pharbitis purpurea (PHBPU); assay: Post-emergence herbicidal action against PHBPU; settings: dosage 320 g/ha
In short: as §2

Setaria viridis (SETVI) [19] = assay: Post-emergence herbicidal action against SETVI
In short: as §2

[20] = tested on: Verconica persica (VERPE); assay: Post-emergence herbicidal action against VERPE
In short: as §2

Viola tricolor (VIOTR) [21] = assay: Post-emergence herbicidal action against VIOTR
In short: as §2

Oryza sativa (ORYSA) = settings: crop plant compatibility, 80 g/ha, effect in comparison to untreated controls
In short: (§3)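 Percent effect on the crop was judged by eye against untreated controls, where 0% means like control and 100% means dead plants. Plants had been sprayed post-emergence at the one-leaf stage and then kept under optimum greenhouse conditions for about 3 weeks.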

[22] = tested on: Polygonum convolvulus (POLCO); assay: Post-emergence herbicidal action against POLCO
In short: as §2

Zea mays (ZEAMX) = settings: crop plant compatibility, 80 g/ha, effect vs untreated controls
In short: as §3

[23] = 80 g/ha, visual rating about 3 weeks after treatment vs untreated controls (100% = plants have died, 0% = like control plants)
[24] = 320 g/ha, visual rating about 3 weeks after treatment

Row | SMILES | Pre-emergence action against ABUTH [1] [%] | Pre-emergence action against ALOMY ([2]; 80 g/ha) [%] | Pre-emergence action against ALOMY ([2]; 320 g/ha) [%] | Pre-emergence action against AMARE in % ([3]; 80 g/ha) [%] | Pre-emergence action against AMARE in % ([3]; 320 g/ha) [%] | Pre-emergence action against AVEFA in % (Avena fatua (AVEFA) [4]; 320 g/ha) [%] | Pre-emergence action against ECHCG in % ([5]; dosage 320 g/ha) [%] | Pre-emergence action against LOLRI in % (Lolium rigidum (LOLRI) [6]; dosage 80 g/ha) [%] | Pre-emergence action against LOLRI in % (Lolium rigidum (LOLRI) [6]; dosage 320 g/ha) [%] | Pre-emergence action against MATIN in % [7] [%] | Pre-emergence action against POLCO in % ([8]; dosage 320 g/ha) [%] | Pre-emergence action against SETVI in % (Setaria viridis (SETVI) [9]; dosage 80 g/ha) [%] | Pre-emergence action against SETVI in % (Setaria viridis (SETVI) [9]; dosage 320 g/ha) [%] | Pre-emergence action against VERPE in % [10] [%] | Pre-emergence action against VIOTR in % (Viola tricolor (VIOTR) [11]; 320 g/ha, Viola tricolor) [%] | Pre-emergence action against VIOTR in % (Viola tricolor (VIOTR) [11]; dosage 80 g/ha) [%] | Post-emergence action against ABUTH in % ([12]; 80 g/ha) [%] | Post-emergence action against ABUTH in % ([12]; 320 g/ha) [%] | Post-emergence action against ALOMY in % ([13]; 80 g/ha) [%] | Post-emergence action against ALOMY in % ([13]; 320 g/ha) [%] | other results
1 | COC(=O)[C@@H](C)Oc1nn(-c2ccnc(Cl)c2)c(-c2ccc(F)nc2)c1Br [III-22] | 100 | 100 | 100 | 90 | 100 | 100 | 100 | 100 | 100 | 100 | 100 | 100 | 100 | 100 | 100 | 90 | 90 | 90 | 100 | 100 | Pre-emergence action against AVEFA in % (Avena fatua (AVEFA) [4]; 80 g/ha): 80%; Pre-emergence action against ECHCG in % ([5]; dosage 80 g/ha): 100%; Post-emergence action against AMARE in % [14, 23]: 90%; Post-emergence action against AMARE in % [14, 24]: 90%; Post-emergence action against AVEFA in % (Avena fatua (AVEFA) [15]; 80 g/ha): 100%; Post-emergence action against AVEFA in % (Avena fatua (AVEFA) [15]; 320 g/ha): 100%; Post-emergence action against ECHCG in % ([16]; dosage 80 g/ha): 100%; Post-emergence action against ECHCG in % ([16]; dosage 320 g/ha): 100%; Post-emergence action against LOLRI in % (Lolium rigidum (LOLRI) [17]; dosage 320 g/ha): 100%; Post-emergence action against PHBPU in % [18]: 80%; Post-emergence action against SETVI in % (Setaria viridis (SETVI) [19]; dosage 80 g/ha): 100%; Post-emergence action against SETVI in % (Setaria viridis (SETVI) [19]; dosage 320 g/ha): 100%; Post-emergence action against VERPE in % ([20]; 320 g/ha, VERPE): 90%; Post-emergence action against VERPE in % ([20]; dosage 80 g/ha): 80%; Post-emergence action against VIOTR in % (Viola tricolor (VIOTR) [21]; 80 g/ha): 90%; Post-emergence action against VIOTR in % (Viola tricolor (VIOTR) [21]; 320 g/ha): 90%; Post-emergence action against ORYSA in % (Oryza sativa (ORYSA)): 0%
2 | CCOC(=O)CNC(=O)COc1nn(-c2ncccc2F)c(-c2ccc(OC)nc2)c1Br [Example I-48] | 80 | 80 | 100 | 90 | 100 | 100 | 100 | 100 | 100 | 100 | 90 | 100 | 100 | 100 | 100 | 100 | 90 | 90 | 100 | 100 | Pre-emergence action against POLCO in % ([8]; dosage 80 g/ha): 90%; Post-emergence action against AMARE in % [14, 23]: 80%; Post-emergence action against AMARE in % [14, 24]: 80%; Post-emergence action against AVEFA in % (Avena fatua (AVEFA) [15]; 320 g/ha): 100%; Post-emergence action against ECHCG in % ([16]; dosage 80 g/ha): 80%; Post-emergence action against ECHCG in % ([16]; dosage 320 g/ha): 90%; Post-emergence action against LOLRI in % (Lolium rigidum (LOLRI) [17]; dosage 320 g/ha): 80%; Post-emergence action against PHBPU in % [18]: 90%; Post-emergence action against POLCO in % ([22]; dosage 80 g/ha): 80%; Post-emergence action against POLCO in % ([22]; dosage 320 g/ha): 90%; Post-emergence action against SETVI in % (Setaria viridis (SETVI) [19]; dosage 80 g/ha): 80%; Post-emergence action against SETVI in % (Setaria viridis (SETVI) [19]; dosage 320 g/ha): 80%; Post-emergence action against VERPE in % ([20]; 320 g/ha, VERPE): 90%; Post-emergence action against VERPE in % ([20]; dosage 80 g/ha): 90%; Post-emergence action against VIOTR in % (Viola tricolor (VIOTR) [21]; 80 g/ha): 80%; Post-emergence action against VIOTR in % (Viola tricolor (VIOTR) [21]; 320 g/ha): 90%; Post-emergence action against ZEAMX in % (Zea mays (ZEAMX)): 20%
3 | COC(=O)CNC(=O)[C@@H](C)Oc1nn(-c2ccccn2)c(-c2ccc(F)nc2)c1Cl [Example I-339] | 90 | 100 | 100 | 100 | 100 | 100 | 100 | 100 | 100 | 100 | 100 | 100 | 100 | 100 | 100 | 100 | 80 | 90 | 90 | 100 | Pre-emergence action against AVEFA in % (Avena fatua (AVEFA) [4]; 80 g/ha): 100%; Pre-emergence action against POLCO in % ([8]; dosage 80 g/ha): 90%; Post-emergence action against AMARE in % [14, 23]: 90%; Post-emergence action against AMARE in % [14, 24]: 90%; Post-emergence action against AVEFA in % (Avena fatua (AVEFA) [15]; 80 g/ha): 90%; Post-emergence action against AVEFA in % (Avena fatua (AVEFA) [15]; 320 g/ha): 90%; Post-emergence action against ECHCG in % ([16]; dosage 80 g/ha): 90%; Post-emergence action against ECHCG in % ([16]; dosage 320 g/ha): 90%; Post-emergence action against LOLRI in % (Lolium rigidum (LOLRI) [17]; dosage 80 g/ha): 90%; Post-emergence action against LOLRI in % (Lolium rigidum (LOLRI) [17]; dosage 320 g/ha): 90%; Post-emergence action against PHBPU in % [18]: 80%; Post-emergence action against POLCO in % ([22]; dosage 80 g/ha): 90%; Post-emergence action against POLCO in % ([22]; dosage 320 g/ha): 90%; Post-emergence action against SETVI in % (Setaria viridis (SETVI) [19]; dosage 80 g/ha): 90%; Post-emergence action against SETVI in % (Setaria viridis (SETVI) [19]; dosage 320 g/ha): 90%; Post-emergence action against VERPE in % ([20]; 320 g/ha, VERPE): 90%; Post-emergence action against VERPE in % ([20]; dosage 80 g/ha): 80%; Post-emergence action against VIOTR in % (Viola tricolor (VIOTR) [21]; 80 g/ha): 90%; Post-emergence action against VIOTR in % (Viola tricolor (VIOTR) [21]; 320 g/ha): 90%; Post-emergence action against ORYSA in % (Oryza sativa (ORYSA)): 0%
